Laboratory results from patent US20220125748A1, “HISTONE ACETYLTRANSFERASE (HAT) REGULATORS AND USES THEREOF” (The Trustees of Columbia University in the City of New York, priority 2019, published 2022).
Entries after “also recorded” stand apart in the source; their conditions may differ.

What was measured:
p300 = p300 (Homo sapiens, UniProt Q09472); test: In vitro acetylation assay (p300, histone 3 Lys 18 / Lys 27, western blot); format: biochemical; settings: compound in DMSO; for EC50: read-out: H3-Lys 18 EC50; for H3-Lys 27 EC50 / H3-Lys 27 IC50: Lys 27 of histone 3
p300, sequence (Q09472 whole entry, species assumed): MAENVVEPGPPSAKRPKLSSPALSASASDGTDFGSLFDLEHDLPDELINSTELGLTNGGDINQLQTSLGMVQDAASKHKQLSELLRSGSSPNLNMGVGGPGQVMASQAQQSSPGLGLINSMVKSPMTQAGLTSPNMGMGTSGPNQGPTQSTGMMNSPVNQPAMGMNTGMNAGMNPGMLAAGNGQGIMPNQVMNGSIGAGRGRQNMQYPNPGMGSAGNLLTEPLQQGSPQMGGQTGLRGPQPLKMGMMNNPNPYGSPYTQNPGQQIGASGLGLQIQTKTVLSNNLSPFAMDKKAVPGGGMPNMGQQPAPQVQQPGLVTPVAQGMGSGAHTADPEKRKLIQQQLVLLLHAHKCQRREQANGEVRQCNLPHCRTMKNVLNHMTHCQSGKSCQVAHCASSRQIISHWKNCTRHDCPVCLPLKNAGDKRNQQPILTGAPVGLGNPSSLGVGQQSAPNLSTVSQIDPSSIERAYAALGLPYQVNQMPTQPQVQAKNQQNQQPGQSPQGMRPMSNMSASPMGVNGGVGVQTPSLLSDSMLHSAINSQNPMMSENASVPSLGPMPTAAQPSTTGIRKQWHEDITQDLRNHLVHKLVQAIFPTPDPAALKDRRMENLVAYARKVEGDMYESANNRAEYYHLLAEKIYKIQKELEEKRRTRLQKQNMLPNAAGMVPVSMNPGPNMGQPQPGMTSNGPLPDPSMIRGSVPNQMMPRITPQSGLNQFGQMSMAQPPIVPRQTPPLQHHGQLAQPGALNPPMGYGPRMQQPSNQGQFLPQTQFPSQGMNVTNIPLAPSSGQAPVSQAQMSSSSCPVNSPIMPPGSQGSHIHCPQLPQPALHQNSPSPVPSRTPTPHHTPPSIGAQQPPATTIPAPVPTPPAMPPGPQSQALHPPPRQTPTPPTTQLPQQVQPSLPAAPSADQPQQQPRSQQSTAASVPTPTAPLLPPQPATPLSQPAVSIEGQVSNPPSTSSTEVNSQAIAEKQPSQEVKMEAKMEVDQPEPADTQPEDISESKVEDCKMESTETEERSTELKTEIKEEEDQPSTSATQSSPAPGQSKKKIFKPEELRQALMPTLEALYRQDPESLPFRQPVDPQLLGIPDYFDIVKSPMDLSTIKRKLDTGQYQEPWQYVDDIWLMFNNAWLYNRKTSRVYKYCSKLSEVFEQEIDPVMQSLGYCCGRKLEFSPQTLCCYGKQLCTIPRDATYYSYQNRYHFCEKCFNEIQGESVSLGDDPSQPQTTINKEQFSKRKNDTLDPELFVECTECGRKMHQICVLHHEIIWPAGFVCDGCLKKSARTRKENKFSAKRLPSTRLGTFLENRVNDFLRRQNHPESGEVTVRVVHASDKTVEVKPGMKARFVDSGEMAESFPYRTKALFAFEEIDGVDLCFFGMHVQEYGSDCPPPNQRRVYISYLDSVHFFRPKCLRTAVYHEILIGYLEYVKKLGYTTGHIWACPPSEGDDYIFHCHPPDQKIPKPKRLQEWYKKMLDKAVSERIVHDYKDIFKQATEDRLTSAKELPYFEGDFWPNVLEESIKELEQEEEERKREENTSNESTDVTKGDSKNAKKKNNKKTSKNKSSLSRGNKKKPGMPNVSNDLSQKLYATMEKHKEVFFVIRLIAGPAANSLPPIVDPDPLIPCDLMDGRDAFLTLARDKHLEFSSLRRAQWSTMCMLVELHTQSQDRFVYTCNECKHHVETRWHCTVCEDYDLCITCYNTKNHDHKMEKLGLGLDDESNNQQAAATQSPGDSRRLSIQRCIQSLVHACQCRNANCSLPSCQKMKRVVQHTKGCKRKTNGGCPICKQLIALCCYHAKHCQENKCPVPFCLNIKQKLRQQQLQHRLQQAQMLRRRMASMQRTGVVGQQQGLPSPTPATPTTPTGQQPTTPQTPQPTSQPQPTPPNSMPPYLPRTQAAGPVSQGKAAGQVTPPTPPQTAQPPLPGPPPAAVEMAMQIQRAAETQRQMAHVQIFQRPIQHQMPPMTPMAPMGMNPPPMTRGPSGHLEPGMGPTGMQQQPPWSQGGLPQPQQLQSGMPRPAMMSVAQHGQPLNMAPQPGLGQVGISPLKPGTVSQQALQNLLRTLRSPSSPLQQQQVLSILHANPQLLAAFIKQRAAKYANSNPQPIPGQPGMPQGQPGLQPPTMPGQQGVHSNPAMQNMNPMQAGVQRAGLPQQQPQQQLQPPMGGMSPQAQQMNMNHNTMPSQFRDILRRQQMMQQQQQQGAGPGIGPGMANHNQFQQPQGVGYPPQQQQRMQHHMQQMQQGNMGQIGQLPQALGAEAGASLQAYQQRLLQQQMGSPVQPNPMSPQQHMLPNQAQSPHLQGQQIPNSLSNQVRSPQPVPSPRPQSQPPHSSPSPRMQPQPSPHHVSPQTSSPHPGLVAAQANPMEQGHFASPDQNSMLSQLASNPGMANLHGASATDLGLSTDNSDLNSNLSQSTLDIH
Description: The aim of the in vitro acetylation assay is to measure the enzymatic activity of the various compounds towards p300. Results are provided in FIG. 3A to FIG. 7B for average values of lysine residue acetylation (continuous line) and their standard error range measured in the absence of compound and DMSO, wherein “n” represents the number of replicates.
First, the drug is prepared:
Second, dilute p300 in AM1 buffer to a concentration of 40 ng/μL (final concentration in the reaction 20 ng/μL). This is accomplished by diluting 1 μL of p300 (at 0.4 μg/μL) into […] of AM1 buffer.
Third, prepare the Master Mix. Prepare the Master Mix in low protein binding tubes (ThermoFisher Cat. No. 90410), 20 μL system.
Incubate reactions at 30° C. for 30 minutes.
Incubate reactions at 30° C. for 1 hour.
Fourth, perform the western blot assay. • Add 6.7 μL of Laemmli Sample Buffer 4× (Bio-Rad Laboratories Cat. No. 161-0737) for each reaction and boil samples at 95° C. for 5 min. • Charge 10 μL for each sample in 2 Tris Glycine 4-15% gels (Bio-Rad Laboratories Cat. No. 456-1086). Running Buffer: Tris-Glycine 1× (pour in the cell up to the writing “2 gels”). • Run at 90 V for 1 hour (until the gel front reaches the green line of cell). • Semi-dry transfer with Trans-Blot® Turbo™ Blotting System from Bio-Rad Laboratories (Trans-Blot® Turbo™ RTA midi PVDF transfer kit Cat. No1704275). • Activate PVDF membrane in methanol for 5 minutes and then wet in Trans-Blot® Turbo™ transfer buffer. • Wet stacks in transfer buffer. • Transfer at 23 V 1.3 A for 7 minutes. • Blocking buffer: 5% Non-Fat milk in TBST (tween 0.1%) 1 hour at room temperature. • Cut the membranes to get Ac-His 3 at 17 kDa and p300 at 300 kDa. • Incubate with primary antibodies overnight at 4° C. • The day after, make 3 washes in TBST (Tween 0.1%) of 10 minutes. • Incubate with secondary antibody at room temperature for 1 hour. • Make 3 washes in TBST (Tween 0.1%) of 5 minutes. • Incubate membranes with ECL (SuperSignal West Dura Extended Duration Substrate from ThermoFisher) for 5 minutes at room temperature. • Acquire the image with ChemiDoc Odyssey Fc 2 minutes.
To detect total H3 (loading control), strip the membranes with Restore™ Western Blot Stripping Buffer according to the manufacturer protocol.
Various compounds were tested for enzymatic activity with respect to Lys 18 and Lys 27 of histone 3. EC50 is indicated for activators and IC50 for inhibitors respectively.

[1] = Stability in human liver microsomes; format: in vitro ADME; settings: both sexes
Description: Compounds were tested for stability in human liver microsomes.
Experimental Procedure • Mixed-gender human liver microsomes (Lot #1210347) were purchased from XenoTech. The reaction mixture, minus NADPH, was prepared as described below. The test article was added into the reaction mixture at a final concentration of 1 μM. The control compound, testosterone, was run simultaneously with the test articles in a separate reaction. An aliquot of the reaction mixture (without cofactor) was equilibrated in a shaking water bath at 37° C. for 3 minutes. The reaction was initiated by the addition of the cofactor, and the mixture was incubated in a shaking water bath at 37° C. Aliquots (100 μL) were withdrawn at 0, 10, 20, 30, and 60 minutes. Test article and testosterone samples were immediately combined with 400 μL of ice-cold 50/50 acetonitrile (ACN)/H2O containing 0.1% formic acid and internal standard to terminate the reaction. […] Half-lives and clearance were calculated using GraphPad software, fitting to a single-phase exponential decay equation. […]
Note (a): When the calculated half-life is longer than the duration of the experiment, the half-life is expressed as being greater than the longest incubation time. Note (b): Intrinsic clearance (CLint) was calculated based on CLint=k/P, where k is the elimination constant and P is the protein concentration in the incubation.

[2] = tested on: hippocampal slices from WT mice perfused with oTau; test: oTau-induced LTP deficit in hippocampal slices
Description: against tau induced synaptic dysfunction. Oligomeric tau caused a defect of LTP. YF2 was applied to hippocampal slices either alone or concurrently with oligomeric tau. […] FIG. 8 is a graph illustrating that YF2 rescues oTau-induced LTP deficits. LTP was impaired in hippocampal slices from WT mice perfused with oTau. The concurrent treatment with YF2 and oTau reestablished normal LTP. There was no impairment in slices treated with YF2 or vehicle. The horizontal solid bar represents oTau perfusion while the horizontal dashed bar represents drug treatment. The three arrows correspond to the theta-burst stimulation. Two-Way ANOVA Vehicle vs. oTau: F(1, 21)=21.32, p=0.0001; Vehicle vs. YF2: F(1, 21)=0.200, p=0.6593; Vehicle vs. YF2+oTau: F(1, 22)=0.3455, p=0.563; YF2 vs. oTau: F(1, 22)=13.72, p=0.0012; YF2 vs. YF2+oTau: F(1, 23)=0.00043, p=0.984; YF2+oTau vs. oTau: F(1, 23)=31.52, p<0.0001.

[3] = tested on: mice administered with oTau; test: 2 day radial arm water maze (RAWM), spatial short-term memory; format: in vivo; settings: oTau 500 nM, YF2 5 mg/kg
Description: Oligomeric tau caused a defect of spatial memory and associative memory. YF2 was injected in mice either alone or concurrently with oligomeric tau. The compound rescued the oligomeric tau induced defect in memory. […] The performance in the RAWM was impaired in mice administered with oTau (500 nM). […] The performance was not impaired when mice were treated with only YF2 or vehicle.

[4] = tested on: mice administered with oTau; test: Contextual fear memory; format: in vivo; settings: YF2 plus oTau vs oTau, 24 hrs after the electric shock
Description: A statistical significant difference is visible when comparing all groups during testing for contextual fear memory at 24 hrs after the electric shock (ANOVA among all groups: F(3, 53)=3.051 p=0.0364).

[5] = Lys 18 of histone 3, EC50 for activators

CCOc1cccc(OCCN2CCOCC2)c1C(C)Nc1ccc(O)c(C(F)(F)F)c1 (centres unmarked) [JF2]
EC50 (p300; [5]): 138 nM | H3-Lys 27 EC50 (p300; EC50 for activators): NO ACTIVITY | H3-Lys 27 IC50 (p300; IC50 for inhibitors): NO ACTIVITY

FC(F)(F)c1cc(N2COc3ccccc3C2)ccc1Cl [JF17]
EC50 (p300; [5]): 103 nM

CN(C)CCOc1cccc2c1C(=O)N(c1ccc(Cl)c(C(F)(F)F)c1)C2=O [JF19]
H3-Lys 18 EC50 (p300; [5]): NO ACTIVITY | H3-Lys 18 IC50 (p300; Lys 18 of histone 3, IC50 for inhibitors): NO ACTIVITY | H3-Lys 27 EC50 (p300; EC50 for activators): NO ACTIVITY | H3-Lys 27 IC50 (p300; IC50 for inhibitors): NO ACTIVITY

C[C@]12CC[C@H]3[C@@H](CCC4=CC(=O)CC[C@@]43C)[C@@H]1CC[C@@H]2O [Testosterone, testosterone]
half-life at 1 μM ([1]; pH 7.4, 1 μM, single-phase exponential decay fit): 40.6 min | microsomal CLint at 1 μM ([1]; pH 7.4, CLint=k/P): 34.1 µL/min/mg

CCOc1cccc(OCCN(C)C)c1C(=O)Nc1ccc(Cl)c(C(F)(F)F)c1 [YF2]
LTP with compound alone ([2]; hippocampal slices treated with YF2 alone): no impairment | effect on oligomeric tau induced defect in long-term potentiation ([2]; hippocampal slices, concurrent treatment with YF2 and oTau): rescued the oligomeric tau induced defect in long-term potentiation; also recorded: rescues oligomeric-Tau (oTau)-induced LTP deficits | RAWM performance, oTau-induced deficit [3]: rescued the deficit; also recorded: rescues oTau-induced defects | contextual fear memory (freezing), oTau-induced deficit [4]: rescues oTau-induced deficit in contextual fear memory; also recorded: rescues oTau-induced defects in contextual fear memory
